Assay results as given in patent US11542271B2, “Fused heteroaromatic-aniline compounds for treatment of dermal disorders” (NFlection Therapeutics, Inc., priority 2017, dated 2023).
“Also recorded” adds a separate entry of the source.

Assays:
[1] = biological target: T1, MAP2K1 (MEK1) (Homo sapiens, UniProt Q02750); test: MEK Inhibition Assay (Biological Example 1b, Z'-LYTE); conditions: Biological Example 1b (compounds 1, 3, 5, 7-8); read-out: Assay 1: biochemical MEK IC50
T1 construct: purchased ThermoFisher
Protocol: MEK1 inhibitory activity of compounds were tested using the following procedure (protocol available at thermofisher.com/content/dam/LifeTech/migration/files/drug-discovery/pdfs.par.60256.file.dat/20130430%20ssbk%20customer%20protocol%20and%20assay%20conditions.pdf). The Z′-LYTE biochemical assay (ThermoFisher) employs a fluorescence-based, coupled-enzyme format and is based on the differential sensitivity of phosphorylated and non-phosphorylated peptides to proteolytic cleavage.
Test compounds in 100% DMSO were screened in 1% DMSO (final) in the well. For 10 point titrations, 3-fold serial dilutions are conducted from the starting concentration of 30 μM.
After the 1 hour incubation, 5 μL of a 1:1024 dilution of Development Reagent A (available from Invitrogen, catalog no. PV3295) was added.
ATP solutions were diluted to a 4× working concentration in Kinase Buffer (50 mM HEPES pH 7.5, 0.01% BRIJ-35, 10 mM MgCl2, 1 mM EGTA). ATP Km apparent was previously determined using a Z′-LYTE assay. The Development Reagent was diluted in Development Buffer (available from Invitrogen, catalog no. P3127).
Assay Protocol: 2.5 μL of 4× test compound or 100 nL of 100× Test Compound plus 2.4 μL Kinase Buffer, 5 μL of the 2× Peptide/Kinase Mixture, 2.5 μL of 4×ATP Solution were added to the plates and placed on a shake plate for 30-seconds. The kinase reaction was allowed to proceed for 60-minute at room temperature, before 5 μL of Development Reagent Solution was added, and the mixture agitated for 30-seconds on a shake plate. The mixture was incubated for 60-minute at room temperature. Fluorescence was measured using a plate reader and the data were analyzed.
This control yielded 100% cleaved peptide in the Development Reaction. The 100% Phosphorylation Control, which consisted of a synthetically phosphorylated peptide of the same sequence as the peptide substrate, was designed to allow for the calculation of percent phosphorylation. This control yielded a very low percentage of cleaved peptide in the Development Reaction. The 0% Phosphorylation and 100% Phosphorylation Controls allow for the calculation of the percent phosphorylation achieved in a specific reaction well.
The minimum emission ratio in a screen was established by the 0% Inhibition Control, which contained active kinase. This control was designed to produce a 10-50% phosphorylated peptide in the Kinase Reaction. Cascade assays may produce up to 70% phosphorylated peptide.
A known inhibitor control standard curve, 10 point titration, was run for each individual kinase on the same plate as the kinase to ensure the kinase was inhibited within an expected IC50 range previously determined.
The following controls are prepared for each concentration of Test Compound assayed. […] The expected value for a non-interfering compound should be 100%. Any value outside of 90% to 110% was flagged. […] The expected value for a non-fluorescence compound should be 0%. Any value >20% was flagged.
The data in Table A was calculated. XLfit from IDBS was used. The dose response curve was curve fit to model number 205 (sigmoidal dose-response model).

[2] = S9 Stability Assay, human liver S9 fraction; type: in vitro ADME
Protocol: Compounds were assessed for metabolic stability in human skin by assessing their rate of disappearance from human S9 skin fraction. Similarly, compounds were assessed for metabolic stability in human liver by assessing their rate of disappearance from human S9 liver fraction. The protocol below can be used to assess the difference between skin and hepatic metabolism.
The assay was carried out in 96-well microtiter plates at 37° C. Reaction mixtures (25 μL) contained a final concentration of 1 μM test compound, 2 mg/mL liver or skin S9 protein, and 1 mM NADPH in buffer (100 mM potassium phosphate, pH 7.4 buffer with 1 mM EDTA, 3 mM MgCl2). At each of the time points (0, 15, 30, and 60 minutes), 150 μL of quench solution (100% acetonitrile with 0.1% formic acid) with internal standard was transferred to each well. Besides the zero minute controls, mixtures containing the same components except the NADPH were also prepared as the negative control. Verapamil or testosterone was included as a positive control to verify assay performance. Plates were sealed and centrifuged at 4° C. for 15 minutes at 4000 rpm. The supernatant was transferred to fresh plates for LC/MS/MS analysis.
All samples were analyzed on LC/MS/MS using an AB Sciex API 4000 instrument, coupled to a Shimadzu LC-20AD LC Pump system. Analytical samples were separated using a Waters Atlantis T3 dC18 reverse phase HPLC column (20 mm×2.1 mm) at a flow rate of 0.5 mL/min. The mobile phase consisted of 0.1% formic acid in water (solvent A) and 0.1% formic acid in 100% acetonitrile (solvent B).
The extent of metabolism was calculated as the disappearance of the test compound, compared to the 0-min control reaction incubations. Initial rates were calculated for the compound concentration and used to determine t1/2 values and subsequently, the intrinsic clearance, CLint=(0.693) (1/t1/2 (min)) (mL incubation/mg of S9 protein).

[3] = system: p-ERK in human cutaneous neurofibroma explants; test: Human cutaneous neurofibroma explant p-ERK suppression (Biological Example 7); type: cell-based; conditions: topical gel formulation (1%), harvested at 4 hours, vs vehicle gel
Source text: The primary objective was to assess the efficacy of a topically-formulated compound described herein in suppressing p-ERK, a downstream biomarker of RAS/MAPK signaling in neurofibroma explants. The secondary objectives was to assess permeability (where the compound was applied topically) of neurofibroma explants treated with a compound described herein.
Primary dermal neurofibromas or cutaneous neurofibromas were obtained from patients with clinical or genetic diagnoses of NF1. Discarded human neurofibromas samples were obtained from the Stanford Surgery Clinic, using an approved human subjects protocol (Stanford IRB #18325). Specimens were identified under the direction of the Principal Investigator and placed in cell proliferation media (DMEM/F12 containing penicillin/streptomycin (0.1%); fungizone (40 μg/mL); B27 (without vitamin A).
Specimens were identified under the direction of the Principal Investigator
Specimens were chopped into 2 mm fragments and placed in 24-well plates containing cell proliferation media (DMEM/F12 containing penicillin/streptomycin (0.1%); fungizone (40 μg/mL); B27 (without vitamin A) and submerged in media with drug. For topical gel application, samples were placed in 96 well plates with epidermal surface exposed to air. […]

[4] = system: C57BL/6J mice; test: In vivo mouse model of skin and systemic toxicity (Biological Example 6b); conditions: topically applied 1%, twice daily 5 days per week
Protocol: These mice are also shaved weekly.
Biological Example 6b was carried out with the following arms: oral vehicle, oral Trametinib, topical vehicle, and topical Trametinib (1%).

T1 sequence (Q02750 whole entry): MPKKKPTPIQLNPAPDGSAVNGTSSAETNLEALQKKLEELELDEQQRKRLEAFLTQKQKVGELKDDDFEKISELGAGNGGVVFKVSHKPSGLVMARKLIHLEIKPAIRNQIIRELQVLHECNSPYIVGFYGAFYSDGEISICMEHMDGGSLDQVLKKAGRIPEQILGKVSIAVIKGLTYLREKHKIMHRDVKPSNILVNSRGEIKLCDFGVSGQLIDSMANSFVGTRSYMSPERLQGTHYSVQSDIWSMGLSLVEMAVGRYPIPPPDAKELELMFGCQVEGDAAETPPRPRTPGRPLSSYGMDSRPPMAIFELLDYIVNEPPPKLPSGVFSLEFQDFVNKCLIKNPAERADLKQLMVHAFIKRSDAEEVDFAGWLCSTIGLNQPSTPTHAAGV

| SMILES | IC50 [1] | Assay 5: human liver S9 intrinsic clearance value (μL/min/mg protein) ([2]; human liver S9) | half-life at 1 μM ([2]; pH 7.4, Table 1, human liver S9 fraction, 1 μM test compound, 2 mg/mL S9 protein, NADPH, read-out: Liver S9 t1/2) | microsomal CLint at 1 μM ([2]; pH 7.4, Table 1, human liver S9 fraction, read-out: CLint (μL/min/mg protein)) | p-ERK in human cutaneous neurofibroma explants [3] | toxicity of topical application [4] |
| --- | --- | --- | --- | --- | --- | --- |
| O=C(NOCCO)c1c(Nc2ccc(I)cc2F)sc2ncc(F)cc12 [Ex. 8, 2-((2-Fluoro-4-iodophenyl)amino)-N-(2-hydroxyethoxy)-5-fluorothieno[2,3-b]pyridine-3-carboxamide] | 256 nM | 57.15 μL/min/mg protein | 6 min | 57.1 µL/min/mg | suppression of p-ERK |  |
| CC(=O)Nc1cccc(-n2c(=O)n(C3CC3)c(=O)c3c(Nc4ccc(I)cc4F)n(C)c(=O)c(C)c32)c1 [trametinib] |  |  |  |  |  | found dead, or had to be sacrificed due to unacceptable weight loss; also recorded: significant toxicity |
